{
  "source": "BindingDB's records for doi:10.1016/j.ejmech.2010.09.016",
  "about": "(Democritus University of Thrace, 2010)",
  "data": [
    {"target": "Seed linoleate 13S-lipoxygenase-1 (Glycine max) (UniProt P08170)", "sequence (P08170 whole entry, looked up)": "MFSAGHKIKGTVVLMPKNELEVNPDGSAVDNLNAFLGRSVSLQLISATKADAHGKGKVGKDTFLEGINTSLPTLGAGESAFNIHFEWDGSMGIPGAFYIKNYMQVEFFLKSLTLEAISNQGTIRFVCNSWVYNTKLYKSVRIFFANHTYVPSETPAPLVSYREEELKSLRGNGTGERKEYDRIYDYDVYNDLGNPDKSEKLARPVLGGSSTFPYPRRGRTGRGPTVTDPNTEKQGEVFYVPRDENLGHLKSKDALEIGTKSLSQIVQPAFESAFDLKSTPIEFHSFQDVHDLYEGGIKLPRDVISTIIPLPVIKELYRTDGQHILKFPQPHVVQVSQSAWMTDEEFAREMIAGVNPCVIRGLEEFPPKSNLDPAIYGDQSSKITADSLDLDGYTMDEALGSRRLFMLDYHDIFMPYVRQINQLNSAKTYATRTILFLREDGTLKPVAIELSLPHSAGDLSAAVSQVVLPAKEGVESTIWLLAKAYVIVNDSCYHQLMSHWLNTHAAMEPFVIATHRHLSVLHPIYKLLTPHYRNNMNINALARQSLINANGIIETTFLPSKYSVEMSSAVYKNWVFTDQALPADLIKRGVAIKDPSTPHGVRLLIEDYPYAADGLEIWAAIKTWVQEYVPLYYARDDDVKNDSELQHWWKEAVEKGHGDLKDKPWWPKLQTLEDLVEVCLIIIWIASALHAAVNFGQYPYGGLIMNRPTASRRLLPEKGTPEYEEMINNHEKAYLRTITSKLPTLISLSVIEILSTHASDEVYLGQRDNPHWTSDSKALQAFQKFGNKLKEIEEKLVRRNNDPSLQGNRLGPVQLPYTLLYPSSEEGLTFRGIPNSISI", "assay": "Inhibition of soybean lipoxygenase at by UV spectrophotometry", "units": {"IC50": "µM"}, "values": [
      {"smiles": "Clc1ccc(Cc2noc(NC3CCCCC3)n2)cc1", "note": "[3-(4-Chlorobenzyl)-N-cyclohexyl-1,2,4-oxadiazol-5-amine]", "IC50": 25},
      {"smiles": "CC(C)Nc1nc(Cc2ccc(Cl)cc2)no1", "note": "[3-(4-Chlorobenzyl)-N-isopropyl-1,2,4-oxadiazol-5-amine]", "IC50": 100},
      {"smiles": "CC(C)Nc1nc(C2CCCCC2)no1", "note": "[3-Cyclohexyl-N-isopropyl-1,2,4-oxadiazol-5-amine]", "IC50": 100},
      {"smiles": "Cc1ccc(-c2noc(NCCCN(C)C)n2)cc1", "note": "[N1,N1-Dimethyl-N3-(3-p-tolyl-1,2,4-oxadiazol-5-yl)propane-1,3-diamine]", "IC50": 25},
      {"smiles": "COc1ccc(C(=N)NO)cc1", "note": "[N'-hydroxy-4-methoxybenzimidamide]", "IC50": 55},
      {"smiles": "Cc1ccc(C(=N)NO)cc1", "note": "[N'-hydroxy-4-methylbenzimidamide]", "IC50": 100},
      {"smiles": "O=[N+]([O-])c1ccc(Cc2noc(NC3CCCCC3)n2)cc1", "note": "[N-Cyclohexyl-3-(4-nitrobenzyl)-1,2,4-oxadiazol-5-amine]", "IC50": 100},
      {"smiles": "Cc1ccc(-c2noc(NC3CCCCC3)n2)cc1", "note": "[N-Cyclohexyl-3-p-tolyl-1,2,4-oxadiazol-5-amine]", "IC50": 92},
      {"smiles": "CC(=O)N(c1nc(-c2ccc([N+](=O)[O-])cc2)no1)C1CCCCC1", "note": "[N-Cyclohexyl-N-[3-(4-nitrophenyl)-1,2,4-oxadiazol-5-yl]acetamide]", "IC50": 50},
      {"smiles": "CC(=O)N(c1nc(-c2cccc([N+](=O)[O-])c2)no1)C(C)C", "note": "[N-Isopropyl-N-[3-(3-nitrophenyl)-1,2,4-oxadiazol-5-yl]acetamide]", "IC50": 58.5},
      {"smiles": "CC(=O)N(c1nc(Cc2ccc(Cl)cc2)no1)C1CCCCC1", "note": "[N-[3-(4-Chlorobenzyl)-1,2,4-oxadiazol-5-yl]-N-cyclohexylacetamide]", "IC50": 100}
    ]}
  ]
}
